Experimental data: paper PMC6539594, “Triazolopeptides Inhibiting the Interaction between Neuropilin-1 and Vascular Endothelial Growth Factor-165” (Molecules, 2019)
Several values for one entry are separate records, joined by “and”; a condition that tells them apart may be missing. Identical values can stand only once. Entries after “also recorded” stand apart in the source; their conditions may differ. Like-named read-outs stand apart in the source and are kept apart here. Values belong to the compound of their own block, whether it stands above or below them. Where no end group is shown, it is not given here. [ ]: non-standard residue; d: D form. hArg = N=C(N)NCCCC[C@H](N)C(=O)O; Dab = NCC[C@H](N)C(=O)O

Experiments:
[1] = Proteolytic stability by incubation in human plasma at 37 °C (HPLC-MS); format: in vitro ADME; details: for remaining at 8 h, 1.1 µmol/mL / remaining at 16 h, 1.1 µmol/mL / remaining at 24 h, 1.1 µmol/mL / remaining at 32 h, 1.1 µmol/mL / remaining at 40 h, 1.1 µmol/mL / remaining at 48 h, 1.1 µmol/mL: human; for remaining at 8 h, 1.1 µmol/mL / remaining at 16 h, 1.1 µmol/mL / remaining at 24 h, 1.1 µmol/mL / remaining at 32 h, 1.1 µmol/mL / remaining at 40 h, 1.1 µmol/mL / remaining at 48 h, 1.1 µmol/mL / half-life: pooled human plasma
Protocol: The samples of the incubated solutions were taken at constant time intervals (every 8 h) and analyzed with the use of HPLC-MS. This technique allows for determination of the proteolysis rate, and enables finding the cleavage sites by structural determination of appearing metabolites. To this aim, we used a previously established protocol.
The human plasma was provided by Mossakowski Medical Research Centre Polish Academy of Sciences (venous blood was obtained from three healthy donors and plasma samples were pooled in equal volumes). Triazolopeptide stock solution was prepared to achieve concentration ca. 1.4 mg/mL. Then, this solution was diluted two-fold into human plasma, affording a final concentration of ca. 1.1 µmol/mL. The samples were mixed on vortex mixer and incubated at 37 °C with 700 rpm mixing in thermoblock. Samples of 100 µL were taken every 8 h; the enzymatic cleavage was quenched by addition of 200 µL of 15% aqueos trichloroacetic acid and vortexed for a while. Precipitated proteins were then centrifuged at 14,000 rpm and 4 °C for 10 min to pellet them. After that, 150 µL of supernatant was taken and analyzed on HPLC-MS (quadrupole mass analyzer and electrospray ionization source). The system was equipped with Jupiter Proteo column I.D. 2.0 mm × 250 mm, phase A: ultrapure water + 0.05% TFA, phase B: gradient grade acetonitrile + 0.05% TFA, detection at 210 nm, quadrupole fixed on scan mode. Elution was with linear increase from 0% to 15% of phase B in 30 min, flow = 0.2 mL/min. All samples were analyzed trice in independent experiments.

[2] = target: T1, NRP-1 (neuropilin-1), binding of bt-VEGF165 (Homo sapiens, UniProt O14786); assay: ELISA: inhibition of bt-VEGF165 binding to NRP-1; details: for inhibition at 10 µM / Inhibition of bt-VEGF165 Binding to NRP-1 [10 µM]: mean ± S.D.
T1 sequence (O14786 22-923, species assumed): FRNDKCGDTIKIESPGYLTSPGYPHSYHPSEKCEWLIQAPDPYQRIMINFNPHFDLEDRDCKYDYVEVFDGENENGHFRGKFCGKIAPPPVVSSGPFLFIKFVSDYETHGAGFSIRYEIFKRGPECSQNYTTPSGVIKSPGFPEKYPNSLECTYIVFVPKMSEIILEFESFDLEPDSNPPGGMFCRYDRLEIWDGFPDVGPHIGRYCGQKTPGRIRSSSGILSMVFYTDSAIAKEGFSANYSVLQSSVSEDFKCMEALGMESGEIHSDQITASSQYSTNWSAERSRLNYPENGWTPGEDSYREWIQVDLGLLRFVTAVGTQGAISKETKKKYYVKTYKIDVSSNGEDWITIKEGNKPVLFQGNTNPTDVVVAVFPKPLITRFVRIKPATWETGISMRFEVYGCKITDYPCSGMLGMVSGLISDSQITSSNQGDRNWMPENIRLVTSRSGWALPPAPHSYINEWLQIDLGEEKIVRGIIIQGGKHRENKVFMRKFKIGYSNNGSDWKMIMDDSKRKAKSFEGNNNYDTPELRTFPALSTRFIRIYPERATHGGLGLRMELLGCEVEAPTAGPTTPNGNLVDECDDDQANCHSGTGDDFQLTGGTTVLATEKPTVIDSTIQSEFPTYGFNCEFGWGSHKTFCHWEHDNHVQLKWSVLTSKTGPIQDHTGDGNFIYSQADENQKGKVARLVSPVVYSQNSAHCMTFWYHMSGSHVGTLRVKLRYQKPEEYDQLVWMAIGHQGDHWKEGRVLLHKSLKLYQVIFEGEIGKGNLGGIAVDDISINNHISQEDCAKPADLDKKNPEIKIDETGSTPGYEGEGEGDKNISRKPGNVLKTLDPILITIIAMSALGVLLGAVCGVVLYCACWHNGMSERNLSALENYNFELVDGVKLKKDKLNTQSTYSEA
Protocol: The inhibitory activity of obtained triazolopeptides 1–23 toward binding of VEGF165 to NRP-1 was measured with the enzyme-linked immunosorbent assay (ELISA). This protocol was described earlier in the literature and was broadly used by our group. VEGF165 was used in biotinylated form (bt-VEGF165).
This assay was carried out according to a previously described method.

[3] = in vitro; details: mouse, cell viability (Muse Cell Analyser), single replicates
Protocol: (§1) For this reason, we carried out a preliminary cytotoxicity assay on murine progenitor cells (myeloblast-like cell line derived from long term cultures of bone marrow 32D) to investigate the impact of 4 at different concentrations on their viability.
(§2) For the cell survivability test, the myeloblast-like cell line derived from long term cultures of bone marrow (32D, ATCC #CRL-11346) was used. Experiments were carried out using Muse Count & Viability Kit and Muse Cell Analyzer (Merck Millipore) according to the procedure given. Cells were incubated for 24 or 48 h with given 4 concentration. Each experiment was performed in three technical replications in three independent experiments.

[4] = test system: myeloblast-like cell line derived from bone marrow (32D); assay: In vitro cell survival test (Muse Count & Viability Kit); details: 32D cells
Protocol: as §1, §2

[5] = test system: drug-resistant MDA-MB-231 human breast cancer cells xenograft; design: method as in PMID 16959272; details: nude mice xenografted with drug-resistant MDA-MB-231 human breast cancer cells; cited from earlier work
[6] = target: T1, NRP-1 (neuropilin-1), binding of bt-VEGF165; details: cited from earlier work
[7] = design: method as in PMID 30241012; details: human plasma; cited from earlier work
[8] = read-out: Relative (peak area average vs 0 h)

Compound: N=C(N)NCCCC[C@H](N)C(=O)NCCCC[C@H](N)C(=O)NCc1cn(Cc2cn([C@@H](CCCNC(=N)N)C(=O)O)nn2)nn1 [Compound 3, Lys(Har)-GlyΨ[Trl]GlyΨ[Trl]Arg]
- compound remained in the solution after 48 h of incubation [1]: more than 70%
- remaining at 8 h, 1.1 µmol/mL [1, 8]: 91.3%
- remaining at 16 h, 1.1 µmol/mL [1, 8]: 90%
- remaining at 24 h, 1.1 µmol/mL [1, 8]: 87.6%
- remaining at 32 h, 1.1 µmol/mL [1, 8]: 81.8%
- remaining at 40 h, 1.1 µmol/mL [1, 8]: 73.4%
- remaining at 48 h, 1.1 µmol/mL [1, 8]: 72.2%
- remaining at 48 h, 1.1 µmol/mL ([1]; read-out: compound remained in the solution after 48 h of incubation): ~70%
- half-life [1]: > 48 h
- IC50 [2]: 8.39 µM
- inhibition at 10 µM [2]: 58.1 ± 2.1%

Compound: N=C(N)NCCCC[C@H](N)C(=O)NCCCC[C@@H](N)C(=O)NCc1cn(Cc2cn([C@@H](CCCNC(=N)N)C(=O)O)nn2)nn1 [Compound 4, D-Lys(Har)-GlyΨ[Trl]GlyΨ[Trl]Arg]
- viability at 24 h, 0.1 µM [3]: 99.4%
- viability at 24 h, 1 µM [3]: 99.3%
- viability at 24 h, 10 µM [3]: 99%
- viability at 24 h, 50 µM [3]: 98.7%
- viability at 24 h, 100 µM [3]: 98.6%
- viability at 48 h, 0.1 µM [3]: 99.4%
- viability at 48 h, 1 µM [3]: 99.6%
- viability at 48 h, 10 µM [3]: 99.4%
- viability at 48 h, 50 µM [3]: 99.7%
- viability at 48 h, 100 µM [3]: 99.2%
- compound remained in the solution after 48 h of incubation [1]: almost undigested; also recorded: almost non-degraded
- remaining at 8 h, 1.1 µmol/mL [1, 8]: 99.4%
- remaining at 16 h, 1.1 µmol/mL [1, 8]: 95.7%
- remaining at 24 h, 1.1 µmol/mL [1, 8]: 93.3%
- remaining at 32 h, 1.1 µmol/mL [1, 8]: 93.1%
- remaining at 40 h, 1.1 µmol/mL [1, 8]: 93%
- remaining at 48 h, 1.1 µmol/mL [1, 8]: 91.8%
- half-life [1]: > 48 h
- impact on cell survivability ([4]; 100 µM, 48 h incubation): does not exhibit any significant impact on normal cells’ viability; also recorded: does not exhibit any significant impact on cell survivability
- cell survival, t-test ([4]; different concentrations): No significant differences in cell survival
- IC50 [2]: 10.2 µM
- inhibition at 10 µM [2]: 52.6 ± 1.3%

Compound: N=C(N)NCCCC[C@@H](N)C(=O)NCCCC[C@@H](N)C(=O)NCc1cn(Cc2cn([C@@H](CCCNC(=N)N)C(=O)O)nn2)nn1 [Compound 5, D-Lys(D-Har)-GlyΨ[Trl]GlyΨ[Trl]Arg]
- inhibition at 10 µM [2]: 48.5 ± 2.9%
- IC50 ([2]; dose-response curve, supplement): 9.11 µM

Compound: ATWKPPR [A7R]
- activity in vivo [5]: active in vivo
- Inhibition of bt-VEGF165 Binding to NRP-1 [10 µM] [6]: 61.0 ± 0.4 ^3%
- IC50 [6]: 5.86 µM

Compound: D-Lys(Har)-GlyΨ[Trl]Arg [Compound 2]
- Inhibition of bt-VEGF165 Binding to NRP-1 [10 µM] [2]: 33.1 ± 1.9%

Compound: D-Lys(Har)-Phe-GlyΨ[Trl]Arg [Compound 9]
- Inhibition of bt-VEGF165 Binding to NRP-1 [10 µM] [2]: 37.9 ± 1.1%

Compound: D-Lys(Har)-Pro-GlyΨ[Trl]Arg [Compound 7]
- Inhibition of bt-VEGF165 Binding to NRP-1 [10 µM] [2]: 38.4 ± 1.5%

Compound: Har-Pro-GlyΨ[Trl]Arg [Compound 12]
- Inhibition of bt-VEGF165 Binding to NRP-1 [10 µM] [2]: 9.2 ± 0.8%

Compound: Lys(Har)-Dab-Pro-Arg
- Inhibition of bt-VEGF165 Binding to NRP-1 [10 µM] [6]: 98.5%
- IC50 [6]: 0.2 µM
- t1/2 [7]: 34 h

Compound: Lys(Har)-Dap-Pro-Arg
- Inhibition of bt-VEGF165 Binding to NRP-1 [10 µM] [6]: 96.8%
- IC50 [6]: 0.2 µM
- t1/2 [7]: 41 h

Compound: Lys(Har)-GlyΨ[Trl]Ala-Arg [Compound 10]
- Inhibition of bt-VEGF165 Binding to NRP-1 [10 µM] [2]: 43.3% and 43.2 ± 1.5%

Compound: Lys(Har)-GlyΨ[Trl]Arg [Compound 1]
- Inhibition of bt-VEGF165 Binding to NRP-1 [10 µM] [2]: 28.1 ± 1.2%

Compound: Lys(Har)-Phe-GlyΨ[Trl]Arg [Compound 8]
- Inhibition of bt-VEGF165 Binding to NRP-1 [10 µM] [2]: 30.9 ± 2.1%

Compound: Lys(Har)-Pro-Ala-Arg
- t1/2 [7]: 0.65 h

Compound: Lys(Har)-Pro-Ala-Arg (KPAR)
- IC50 [6]: 0.2 µM

Compound: Lys(Har)-Pro-Dab-Arg
- t1/2 [7]: 0.733 h

Compound: Lys(Har)-Pro-Dab-Arg (K(hArg)P[Dab]R)
- IC50 [6]: 0.3 µM

Compound: Lys(Har)-Pro-GlyΨ[Trl]Arg [Compound 6]
- Inhibition of bt-VEGF165 Binding to NRP-1 [10 µM] [2]: 18.3 ± 0.9%

Compound: Lys-Pro-Pro-Arg (KPPR; printed: Lys-Pro-Pro-Arg)
- Inhibition of bt-VEGF165 Binding to NRP-1 [10 µM] [6]: 64.5%
- IC50 [6]: 4.6 µM

Results, then the compound that gave them:

- Inhibition of bt-VEGF165 Binding to NRP-1 [10 µM] [2]: 43.7 ± 0.5%
Compound: D-Lys(Fmoc-Har)-GlyΨ[Trl]GlyΨ[Trl]Arg [Compound 15]

- Inhibition of bt-VEGF165 Binding to NRP-1 [10 µM] [2]: 41.3 ± 0.5%
Compound: Dab(Har)-GlyΨ[Trl]GlyΨ[Trl]Arg [Compound 17]

- Inhibition of bt-VEGF165 Binding to NRP-1 [10 µM] [2]: 25.3 ± 3.5%
Compound: Dap(Har)-GlyΨ[Trl]GlyΨ[Trl]Arg [Compound 18]

- Inhibition of bt-VEGF165 Binding to NRP-1 [10 µM] [2]: 29.7 ± 1.8%
Compound: Har-5Ava-GlyΨ[Trl]GlyΨ[Trl]Arg [Compound 20]

- Inhibition of bt-VEGF165 Binding to NRP-1 [10 µM] [2]: 30.5 ± 0.6%
Compound: Har-6Ahx-GlyΨ[Trl]GlyΨ[Trl]Arg [Compound 19]

- Inhibition of bt-VEGF165 Binding to NRP-1 [10 µM] [2]: 27.8 ± 2.1%
Compound: Har-Ala-GlyΨ[Trl]GlyΨ[Trl]Arg [Compound 21]

- Inhibition of bt-VEGF165 Binding to NRP-1 [10 µM] [2]: 35.7 ± 1.6%
Compound: Har-Gly-GlyΨ[Trl]GlyΨ[Trl]Arg [Compound 22]

- Inhibition of bt-VEGF165 Binding to NRP-1 [10 µM] [2]: 20.0 ± 2.1%
Compound: Har-GlyΨ[Trl]GlyΨ[Trl]Arg [Compound 23]

- Inhibition of bt-VEGF165 Binding to NRP-1 [10 µM] [2]: 34.8 ± 1.5%
Compound: Har-GlyΨ[Trl]GlyΨ[Trl]GlyΨ[Trl]Arg [Compound 13]

- Inhibition of bt-VEGF165 Binding to NRP-1 [10 µM] [2]: 36.5 ± 1.4%
Compound: Har-Lys-GlyΨ[Trl]GlyΨ[Trl]Arg [Compound 16]

- Inhibition of bt-VEGF165 Binding to NRP-1 [10 µM] [2]: 57.7 ± 1.8%
Compound: Lys(Fmoc-Har)-GlyΨ[Trl]GlyΨ[Trl]Arg [Compound 14]

- Inhibition of bt-VEGF165 Binding to NRP-1 [10 µM] [2]: 30.6 ± 1.1%
Compound: Lys(Har)-GlyΨ[Trl]Gly-Arg [Compound 11]
